Source: ChEMBL document CHEMBL4422692, “Plant-Based Modulators of Endocannabinoid Signaling” (J Nat Prod, 2019)
pEC50, pIC50, pKi: −log10 of the molar value. Each block holds one compound with its values, some of them ahead of it.

Tests used:
[1] = target: T1, Cannabinoid receptor 1 (Homo sapiens, UniProt P21554); assay: Displacement of [3H]-CP55940 from recombinant human CB1 receptor expressed in HEK293-EBNA cell membranes after 90 mins by scintillation counting method
[2] = target: T2, Cannabinoid receptor 2 (Homo sapiens, UniProt P34972); assay: Displacement of [3H]-CP55940 from recombinant human CB2 receptor expressed in HEK293 cell membranes after 90 mins by scintillation counting method
T2 sequence (P34972 whole entry): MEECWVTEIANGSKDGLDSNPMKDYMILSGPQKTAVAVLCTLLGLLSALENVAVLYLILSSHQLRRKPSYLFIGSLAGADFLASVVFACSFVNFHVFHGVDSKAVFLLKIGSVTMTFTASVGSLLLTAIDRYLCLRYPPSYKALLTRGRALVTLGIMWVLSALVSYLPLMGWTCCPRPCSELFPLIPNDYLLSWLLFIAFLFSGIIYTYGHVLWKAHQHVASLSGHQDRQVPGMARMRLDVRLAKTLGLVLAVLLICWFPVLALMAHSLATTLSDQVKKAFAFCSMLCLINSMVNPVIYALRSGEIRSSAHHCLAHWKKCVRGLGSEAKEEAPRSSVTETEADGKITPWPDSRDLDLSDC

[3] = target: Cannabinoid receptor 1 (Rattus norvegicus, UniProt P20272); assay: Displacement of [3H]-CP55940 from CB1 receptor in rat […] membranes after 60 mins by scintillation counting method; format: cell membranes
Sequence of Cannabinoid receptor 1 (Rattus norvegicus, UniProt P20272) (P20272 whole entry): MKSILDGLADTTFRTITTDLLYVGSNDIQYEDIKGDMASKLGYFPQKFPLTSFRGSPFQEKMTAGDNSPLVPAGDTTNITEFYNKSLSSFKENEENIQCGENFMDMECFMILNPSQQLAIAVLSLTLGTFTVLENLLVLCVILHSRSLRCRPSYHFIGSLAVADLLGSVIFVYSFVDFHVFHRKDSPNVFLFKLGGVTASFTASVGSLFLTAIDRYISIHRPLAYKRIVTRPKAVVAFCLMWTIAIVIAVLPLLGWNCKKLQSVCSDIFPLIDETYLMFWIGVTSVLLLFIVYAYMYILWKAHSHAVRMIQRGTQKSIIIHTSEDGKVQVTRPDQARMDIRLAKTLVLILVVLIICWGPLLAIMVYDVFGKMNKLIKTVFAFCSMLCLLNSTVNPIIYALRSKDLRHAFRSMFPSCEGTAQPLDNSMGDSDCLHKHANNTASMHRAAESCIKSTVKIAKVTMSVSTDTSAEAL

[4] = target: Cannabinoid receptor 2 (Mus musculus, UniProt P47936); assay: Displacement of [3H]-CP55940 from CB2 receptor in mouse spleen membranes after 60 mins by scintillation counting method; format: cell membranes
Sequence of Cannabinoid receptor 2 (Mus musculus, UniProt P47936) (P47936 whole entry): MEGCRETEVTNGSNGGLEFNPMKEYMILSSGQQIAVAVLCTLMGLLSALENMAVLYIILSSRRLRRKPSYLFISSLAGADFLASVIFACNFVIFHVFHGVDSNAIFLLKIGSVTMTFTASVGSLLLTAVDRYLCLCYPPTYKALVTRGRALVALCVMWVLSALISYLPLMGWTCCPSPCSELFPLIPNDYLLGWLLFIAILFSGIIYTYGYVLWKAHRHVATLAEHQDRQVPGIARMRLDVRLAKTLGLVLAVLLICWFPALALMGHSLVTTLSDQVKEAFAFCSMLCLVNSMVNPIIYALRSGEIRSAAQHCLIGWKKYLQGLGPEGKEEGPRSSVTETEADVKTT

[5] = target: T2, Cannabinoid receptor 2; assay: Displacement of [3H]-CP55940 from recombinant CB2 receptor (unknown origin) expressed in cell membranes after 90 mins by scintillation counting method
[6] = target: T2, Cannabinoid receptor 2; assay: Displacement of [3H]-CP55940 from recombinant human CB2 receptor expressed in HEK293 cell membranes measured after 90 mins
[7] = target: T1, Cannabinoid receptor 1; assay: Displacement of [3H]-CP55940 from CB1 receptor (unknown origin)
[8] = target: T2, Cannabinoid receptor 2; assay: Displacement of [3H]-CP55940 from CB2 receptor (unknown origin)
[9] = target: T3, Fatty-acid amide hydrolase 1 (Homo sapiens) (UniProt O00519); assay: Inhibition of FAAH in human U937 cell homogenates at 100 uM using [14C]-AEA as substrate preincubated for 15 mins followed by substrate addition and measured after 15 mins by liquid scintillation counting method relative to control
T3 sequence (whole entry): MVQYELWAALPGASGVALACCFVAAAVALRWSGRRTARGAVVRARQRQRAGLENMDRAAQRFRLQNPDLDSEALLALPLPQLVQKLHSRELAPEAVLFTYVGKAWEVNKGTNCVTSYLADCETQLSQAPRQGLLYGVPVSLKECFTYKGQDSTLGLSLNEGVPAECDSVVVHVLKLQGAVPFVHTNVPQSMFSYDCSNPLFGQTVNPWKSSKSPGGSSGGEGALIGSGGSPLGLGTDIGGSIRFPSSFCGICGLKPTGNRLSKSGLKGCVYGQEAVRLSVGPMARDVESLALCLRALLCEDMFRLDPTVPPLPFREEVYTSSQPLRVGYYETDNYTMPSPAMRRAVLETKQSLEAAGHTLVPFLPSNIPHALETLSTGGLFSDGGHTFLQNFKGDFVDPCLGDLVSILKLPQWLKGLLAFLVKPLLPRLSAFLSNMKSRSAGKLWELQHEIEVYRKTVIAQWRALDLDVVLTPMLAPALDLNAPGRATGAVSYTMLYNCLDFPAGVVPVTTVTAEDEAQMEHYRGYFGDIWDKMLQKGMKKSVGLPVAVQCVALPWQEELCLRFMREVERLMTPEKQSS

[10] = system: U-937; assay: Inhibition of [14C]-AEA uptake in human U937 cells preincubated for 15 mins followed by [14C]-AEA addition and measured after 5 mins by scintillation counting method; format: functional, cell-based
[11] = target: T2, Cannabinoid receptor 2; assay: Displacement of [3H]-CP55940 from recombinant human CB2 receptor measured after 2 hrs by liquid scintillation counting method
[12] = target: Fatty acid-binding protein 5 (Homo sapiens, UniProt Q01469); assay: Displacement of NBD-Stearate from recombinant human FABP5 measured after 30 mins by fluorescence polarization assay
Sequence of Fatty acid-binding protein 5 (Q01469 whole entry): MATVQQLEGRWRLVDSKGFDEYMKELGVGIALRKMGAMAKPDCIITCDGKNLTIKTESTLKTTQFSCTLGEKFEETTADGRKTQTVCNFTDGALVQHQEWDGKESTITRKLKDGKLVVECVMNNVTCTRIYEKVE

[13] = target: T1, Cannabinoid receptor 1; assay: Displacement of [3H]-CP55940 from recombinant human CB1 receptor measured after 2 hrs by liquid scintillation counting method
[14] = target: T4, Fatty-acid amide hydrolase 1 (Homo sapiens, UniProt O00519); assay: Inhibition of FAAH in human U937 cell homogenates using [14C]-AEA as substrate preincubated for 15 mins followed by substrate addition and measured after 15 mins by liquid scintillation counting method
T4 sequence (O00519 whole entry): T3 sequence (whole entry)

[15] = target: T5, Monoglyceride lipase (Homo sapiens, UniProt Q99685); assay: Inhibition of MAGL in human U937 cell homogenates using [3H]-2OG as substrate preincubated for 15 mins followed by substrate addition and measured after 15 mins by liquid scintillation counting method
T5 sequence (Q99685 whole entry): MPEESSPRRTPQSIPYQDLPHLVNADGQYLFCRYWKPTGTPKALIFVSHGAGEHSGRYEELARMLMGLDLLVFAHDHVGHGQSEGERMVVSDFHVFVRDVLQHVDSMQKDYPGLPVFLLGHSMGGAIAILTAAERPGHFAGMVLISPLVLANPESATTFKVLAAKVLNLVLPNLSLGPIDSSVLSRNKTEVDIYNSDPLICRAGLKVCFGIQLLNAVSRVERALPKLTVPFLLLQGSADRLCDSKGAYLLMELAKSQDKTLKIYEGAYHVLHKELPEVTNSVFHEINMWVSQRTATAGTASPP

T1 sequence (P21554 whole entry): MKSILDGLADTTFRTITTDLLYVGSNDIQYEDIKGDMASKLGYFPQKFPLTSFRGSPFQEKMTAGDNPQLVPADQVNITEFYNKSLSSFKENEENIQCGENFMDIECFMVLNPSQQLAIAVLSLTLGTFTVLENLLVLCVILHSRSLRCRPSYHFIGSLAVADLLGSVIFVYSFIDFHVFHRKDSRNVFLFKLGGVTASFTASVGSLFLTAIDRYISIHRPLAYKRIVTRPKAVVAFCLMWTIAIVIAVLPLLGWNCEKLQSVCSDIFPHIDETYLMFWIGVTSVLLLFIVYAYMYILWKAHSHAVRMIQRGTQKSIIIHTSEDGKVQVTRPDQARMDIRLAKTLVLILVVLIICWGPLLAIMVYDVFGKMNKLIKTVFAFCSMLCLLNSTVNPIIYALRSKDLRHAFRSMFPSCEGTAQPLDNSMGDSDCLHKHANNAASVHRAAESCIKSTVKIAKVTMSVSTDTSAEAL

pKi [1]: < 4.40
pKi [2]: < 4.40
Structure (SMILES): C#CC#CCCCC/C=C/C(=O)NCC(C)C

Structure (SMILES): CC#CC#CCCCC/C=C/C(=O)NCC(C)CC (stereo unspecified)
pKi [3]: 5.17
pKi [4]: 5.14

pKi [5]: 5.34
Structure (SMILES): C/C=C\C=C\CC/C=C/C=C/C(=O)NCC(C)C

Structure (SMILES): CC#CC#CCCCC/C=C/C=C/C(=O)NCC(C)C
pKi [3]: 4.61
pKi [4]: 5.73

pKi [3]: 4.96
pKi [4]: 5.08
Structure (SMILES): CCC/C=C\CC/C=C/C=C/C(=O)NCC(C)C

pKi [5]: 5.04
Structure (SMILES): C/C=C/C=C\CC/C=C/C=C/C(=O)NCC(C)C

pKi [1]: 5.21
pKi [2]: 7.24
Structure (SMILES): C/C=C\C=C/CC/C=C/C=C/C(=O)NCC(C)C

pKi [6]: 6.08
Structure (SMILES): CC(C)=CCC/C(C)=C/Cc1c(O)cc(CCc2ccccc2)c(C(=O)O)c1O

pKi [7]: 4.33
pKi [8]: 4.02
Structure (SMILES): O=C(O[C@@H]1Cc2c(O)cc(O)cc2O[C@@H]1c1ccc(O)c(O)c1)c1cc(O)c(O)c(O)c1 [EPICATECHIN GALLATE]

Structure (SMILES): Oc1cc(O)c2c(c1)O[C@H](c1cc(O)c(O)c(O)c1)[C@H](O)C2 [EPIGALLOCATECHIN]
pKi [7]: 4.45
pKi [8]: 3.44

Structure (SMILES): O=C(O[C@@H]1Cc2c(O)cc(O)cc2O[C@@H]1c1cc(O)c(O)c(O)c1)c1cc(O)c(O)c(O)c1 [EPIGALOCATECHIN GALLATE]
pKi [8]: 4.37

Structure (SMILES): CC(C)CNC(=O)/C=C/C=C/CCCCCC/C=C/c1ccc2c(c1)OCO2 [GUINEENSINE]
inhibition [9]: 59%
Efficacy [10]: 65%
pEC50 ([10]; Homo sapiens, U-937): 6.54
pKi [11]: 4.42
pKi [12]: < 4.00
pKi [13]: < 4.70
pIC50 [14]: 4.33
pKi [15]: < 4.00
